This note sets out measurements from patent US20150352108A1, “AMINO-PYRIMIDINE COMPOUNDS AS INHIBITORS OF TBK1 AND/OR IKK EPSILON” (Alzheimer's Institute of America, priority 2009, published 2015).

In experiment [1] the target is T1, IKKε (Homo sapiens, UniProt Q14164).
T1 construct: His-tag; made in house; host or cells: Sf9 insect cells
T1 sequence (Q14164 1-716): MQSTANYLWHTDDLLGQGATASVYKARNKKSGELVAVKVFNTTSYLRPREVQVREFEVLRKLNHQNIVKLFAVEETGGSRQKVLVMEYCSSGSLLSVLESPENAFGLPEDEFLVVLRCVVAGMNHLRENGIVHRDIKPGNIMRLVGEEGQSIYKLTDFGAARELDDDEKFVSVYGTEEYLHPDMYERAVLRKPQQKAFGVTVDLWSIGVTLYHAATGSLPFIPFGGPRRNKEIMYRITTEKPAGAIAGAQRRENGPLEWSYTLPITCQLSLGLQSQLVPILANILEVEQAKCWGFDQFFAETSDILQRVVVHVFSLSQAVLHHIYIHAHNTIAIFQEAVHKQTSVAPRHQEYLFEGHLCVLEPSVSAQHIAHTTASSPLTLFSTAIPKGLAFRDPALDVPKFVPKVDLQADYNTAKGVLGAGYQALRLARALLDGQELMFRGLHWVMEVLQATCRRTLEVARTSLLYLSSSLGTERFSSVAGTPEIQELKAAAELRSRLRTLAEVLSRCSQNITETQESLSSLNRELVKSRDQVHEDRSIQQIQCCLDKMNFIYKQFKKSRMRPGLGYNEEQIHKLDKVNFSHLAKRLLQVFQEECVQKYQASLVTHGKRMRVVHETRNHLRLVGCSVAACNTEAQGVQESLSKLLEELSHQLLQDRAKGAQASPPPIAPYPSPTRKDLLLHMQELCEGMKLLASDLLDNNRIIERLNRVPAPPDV
Briefly: In-vitro IKKε kinase assay ([γ33]ATP filter-plate). Type of experiment: biochemical. The essentials: (§1)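 Phosphorylation of casein or myelin basic protein was counted by P-81 filter capture after 30-45 min reactions stopped with phosphoric acid, with counts normalized to DMSO after background subtraction. ATP was twice Km: 60 μM for TBK1 and 32 μM for IKKε, plus [γ33]ATP. Sf9-expressed His-tag enzymes were used at normal/sensitized levels of 0.1/0.02 μg/ml (TBK1) and 0.1/0.015 μg/ml (IKKε).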

The target of experiment [2] is T2, TBK1 (Homo sapiens, UniProt Q9UHD2).
T2 construct: His-tag; made in house; host or cells: Sf9 insect cells
T2 sequence (Q9UHD2 1-729): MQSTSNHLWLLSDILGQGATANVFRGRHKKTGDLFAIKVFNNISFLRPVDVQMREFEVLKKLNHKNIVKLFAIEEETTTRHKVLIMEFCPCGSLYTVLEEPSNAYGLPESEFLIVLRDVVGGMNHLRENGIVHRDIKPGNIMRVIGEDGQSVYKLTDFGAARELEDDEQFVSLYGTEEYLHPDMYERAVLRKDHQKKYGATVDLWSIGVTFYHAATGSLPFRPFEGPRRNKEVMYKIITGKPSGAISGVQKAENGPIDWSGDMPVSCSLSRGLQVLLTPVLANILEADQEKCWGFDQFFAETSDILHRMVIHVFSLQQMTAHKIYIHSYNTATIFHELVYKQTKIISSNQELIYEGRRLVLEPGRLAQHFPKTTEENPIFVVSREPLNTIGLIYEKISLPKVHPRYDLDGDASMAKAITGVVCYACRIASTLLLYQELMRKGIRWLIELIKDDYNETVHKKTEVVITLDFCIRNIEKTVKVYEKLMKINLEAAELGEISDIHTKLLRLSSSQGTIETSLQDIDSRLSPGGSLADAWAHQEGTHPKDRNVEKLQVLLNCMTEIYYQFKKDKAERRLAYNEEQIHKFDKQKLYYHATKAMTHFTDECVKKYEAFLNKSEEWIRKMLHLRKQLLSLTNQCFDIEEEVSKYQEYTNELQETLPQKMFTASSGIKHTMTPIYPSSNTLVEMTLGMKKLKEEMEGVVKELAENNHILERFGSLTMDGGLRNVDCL
Briefly: In-vitro TBK1 kinase assay ([γ33]ATP filter-plate). Type of experiment: biochemical. The essentials: as §1

Setting [3] is: text bins, read-out: IC50 for inhibition of the kinase activity of IKKε.
Setting [4] is: text bins, read-out: IC50 for inhibition of the kinase activity of TBK1.

The structures appear in SMILES notation. Where two headings read alike, the source gives them in different places.

By IC50 is commonly meant the concentration needed to halve the response being measured. Consider `COCCNC(=O)c1ccc(Nc2nccc(-c3ccc(OCC(C)C)c(C#N)c3)n2)cc1` [compound 565, 4-({4-[3-Cyano-4-(2-methylpropoxy)phenyl]pyrimidin-2-yl}amino)-N-(2-methoxyethyl) benzamide], for which the concentration for half-maximal inhibition (IC50) in experiment [1] (Table 3, read-out: IKKε IC50) was 0.6 nM; in experiment [1] (setting [3]), less than 5 nM; in experiment [2] (Table 3, read-out: TBK1 IC50), 2.1 nM; in experiment [2] (setting [4]) it was less than 10 nM.
As to `N#Cc1cc(-c2ccnc(Nc3ccc(CS(=O)(=O)NCCO)cc3)n2)ccc1NC(=O)C1CC1` [compound 566, N-(2-Cyano-4-{2-[(4-{[(2-hydroxyethyl)sulfamoyl]methyl}phenyl)amino]pyrimidin-4-yl}phenyl) cyclopropane-carboxamide], the 50% inhibitory concentration (IC50) is less than 5 nM in experiment [1] (setting [3]) and less than 10 nM in experiment [2] (setting [4]).
Consider `N#Cc1cc(-c2ccnc(Nc3ccc(N4CCOCC4)cc3)n2)ccc1NC(=O)CN` [compound 568, N-[2-Cyano-4-(2-{[4-(morpholin-4-yl)phenyl]amino}pyrimidin-4-yl)phenyl] glycinamide], for which the concentration for half-maximal inhibition (IC50) in experiment [1] (setting [3]) fell in the range of 5 to 50 nM; in experiment [2] (setting [4]), 10 to 100 nM.
As for `N#Cc1cc(-c2ccnc(Nc3cccc(CNCCN4CCOCC4)c3)n2)ccc1OC1CCOCC1` [compound 569, 5-(2-{[3-({[2-(Morpholin-4-yl)ethyl]amino}methyl)phenyl]amino}pyrimidin-4-yl)-2-(tetrahydro-2H-pyran-4-yloxy)benzonitrile], the IC50 in experiment [1] (setting [3]) is 5 to 50 nM; in experiment [2] (setting [4]), 10 to 100 nM.
Turning to `COc1cc(Nc2nccc(-c3ccc(NC(=O)C4CC4)c(C#N)c3)n2)ccc1CN1CC(OC)C1` [compound 570, N-{2-Cyano-4-[2-({3-methoxy-4-[(3-methoxyazetidin-1-yl)methyl]phenyl}amino)pyrimidin-4-yl]phenyl} cyclopropane-carboxamide], the IC50 in experiment [1] (setting [3]) was 5 to 50 nM; in experiment [2] (setting [4]), 10 to 100 nM.
The like results for `COC1CN(c2cc(Nc3nccc(-c4ccc(OC5CCOCC5)c(C#N)c4)n3)ccc2C)C1` [compound 572, 5-(2-{[3-(3-Methoxyazetidin-1-yl)-4-methylphenyl]amino}pyrimidin-4-yl)-2-(tetrahydro-2H-pyran-4-yloxy)benzonitrile] were, in that order, less than 5 nM and less than 10 nM.
The like results for `COCCNCc1ccc(Nc2nccc(-c3ccc(OCC4CC4)c(C#N)c3)n2)cc1` [compound 581, 2-(Cyclopropylmethoxy)-5-{2-[(4-{[(2-methoxyethyl)amino]methyl}phenyl)amino]pyrimidin-4-yl}benzonitrile] were, in that order, less than 5 nM and less than 10 nM.
Regarding `N#Cc1cc(-c2ccnc(Nc3cccc(N4CCOCC4)c3)n2)ccc1OC1CCOCC1` [compound 585, 5-(2-{[3-(Morpholin-4-yl)phenyl]amino}pyrimidin-4-yl)-2-(tetrahydro-2H-pyran-4-yloxy)benzonitrile], the IC50 in experiment [1] (Table 3, read-out: IKKε IC50) is 0.4 nM; in experiment [1] (setting [3]) it was less than 5 nM; in experiment [2] (Table 3, read-out: TBK1 IC50), 1.9 nM; in experiment [2] (setting [4]), less than 10 nM.
The like results for `Cc1ccc(Nc2nccc(-c3ccc(OC4CCOCC4)c(C#N)c3)n2)cc1N1CCOCC1` [compound 590, 5-(2-{[4-Methyl-3-(morpholin-4-yl)phenyl]amino}pyrimidin-4-yl)-2-(tetrahydro-2H-pyran-4-yloxy)benzonitrile] were, in that order, 0.3 nM, less than 5 nM, 1.2 nM and less than 10 nM.
In the case of `COCCOC1CN(c2cc(Nc3nccc(-c4ccc(OC5CCOCC5)c(C#N)c4)n3)ccc2C)C1` [compound 596, 5-[2-({3-[3-(2-Methoxyethoxy)azetidin-1-yl]-4-methylphenyl}amino)pyrimidin-4-yl]-2-(tetrahydro-2H-pyran-4-yloxy)benzonitrile], the IC50 in experiment [1] (Table 3, read-out: IKKε IC50) was 0.7 nM; in experiment [1] (setting [3]), less than 5 nM; in experiment [2] (Table 3, read-out: TBK1 IC50), 1 nM; in experiment [2] (setting [4]), less than 10 nM.
Take `CNS(=O)(=O)Cc1ccc(Nc2nccc(-c3ccc(OCC(C)C)c(C#N)c3)n2)cc1` [compound 606, 1-[4-({4-[3-Cyano-4-(2-methylpropoxy)phenyl]pyrimidin-2-yl}amino)phenyl]-N-methylmethane-sulfonamide]: the IC50 in experiment [1] (setting [3]) was less than 5 nM; in experiment [2] (setting [4]) it was less than 10 nM.
The like results for `N#Cc1cc(-c2ccnc(Nc3ccc(F)c(OCC(O)CO)c3)n2)ccc1OC1CCOCC1` (stereo not shown) [compound 608, 5-(2-{[3-(2,3-Dihydroxypropoxy)-4-fluorophenyl]amino}pyrimidin-4-yl)-2-(tetrahydro-2H-pyran-4-yloxy)benzonitrile] were, in that order, less than 5 nM and less than 10 nM.
Consider `N#Cc1cc(-c2ccnc(Nc3cccc(CS(=O)(=O)NCCO)c3)n2)ccc1OCC1CC1` [compound 611, 1-[3-({4-[3-Cyano-4-(cyclopropylmethoxy)phenyl]pyrimidin-2-yl}amino)phenyl]-N-(2-hydroxyethyl) methanesulfonamide], for which the concentration for half-maximal inhibition (IC50) in experiment [1] (Table 3, read-out: IKKε IC50) is 1.5 nM; in experiment [1] (setting [3]), less than 5 nM; in experiment [2] (Table 3, read-out: TBK1 IC50), 0.6 nM; in experiment [2] (setting [4]) it was less than 10 nM.
As for `COc1cc(Nc2nc(-c3ccc(OC4CCOCC4)c(C#N)c3)c3nc[nH]c3n2)ccc1N1CCOCC1` [compound 633, 5-(2-{[3-Methoxy-4-(morpholin-4-yl)phenyl]amino}-3H-purin-6-yl)-2-(tetrahydro-2H-pyran-4-yloxy)benzonitrile], the IC50 was 5 to 50 nM in experiment [1] (setting [3]) and less than 10 nM in experiment [2] (setting [4]).
The like results for `COC1CN(Cc2ccc(Nc3nccc(-c4ccc(NC(=O)C5CC5)c(C#N)c4)n3)cc2)C1` [compound 634, N-{2-Cyano-4-[2-({4-[(3-methoxyazetidin-1-yl)methyl]phenyl}amino)pyrimidin-4-yl]phenyl} cyclopropane-carboxamide] were, in that order, 5 to 50 nM and 10 to 100 nM.
The like results for `N#Cc1cc(-c2ccnc(Nc3ccc(CS(=O)(=O)NCCO)cc3)n2)ccc1OCC1CC1` [compound 637, 1-[4-({4-[3-Cyano-4-(cyclopropylmethoxy)phenyl]pyrimidin-2-yl}amino)phenyl]-N-(2-hydroxyethyl) methanesulfonamide] were, in that order, less than 5 nM and less than 10 nM.
In the case of `CNS(=O)(=O)Cc1ccc(Nc2nccc(-c3ccc(OCC4CC4)c(C#N)c3)n2)cc1` [compound 644, 1-[4-({4-[3-Cyano-4-(cyclopropylmethoxy)phenyl]pyrimidin-2-yl}amino)phenyl]-N-methylmethane-sulfonamide], the concentration for half-maximal inhibition (IC50) in experiment [1] (setting [3]) is less than 5 nM; in experiment [2] (setting [4]), less than 10 nM.
The like results for `CC(C)COc1ccc(-c2ccnc(Nc3ccc(CS(=O)(=O)NCCO)cc3)n2)cc1C#N` [compound 645, 1-[4-({4-[3-Cyano-4-(2-methylpropoxy)phenyl]pyrimidin-2-yl}amino)phenyl]-N-(2-hydroxyethyl) methanesulfonamide] were, in that order, less than 5 nM and less than 10 nM.
With `N#Cc1cc(-c2ccnc(Nc3ccc(F)c(OCCN4CCNCC4)c3)n2)ccc1OCC1CC1` [compound 654, 2-(Cyclopropylmethoxy)-5-[2-({4-fluoro-3-[2-(piperazin-1-yl)ethoxy]phenyl}amino)pyrimidin-4-yl]benzonitrile], the IC50 is less than 5 nM in experiment [1] (setting [3]) and less than 10 nM in experiment [2] (setting [4]).
As for `COC1CN(C(=O)c2ccc(Nc3nccc(-c4ccc(NC(=O)C5CC5)c(C#N)c4)n3)cc2)C1` [compound 665, N-{2-Cyano-4-[2-({4-[(3-methoxyazetidin-1-yl)carbonyl]phenyl}amino)pyrimidin-4-yl]phenyl} cyclopropane-carboxamide], the concentration for half-maximal inhibition (IC50) in experiment [1] (setting [3]) is less than 5 nM; in experiment [2] (setting [4]), less than 10 nM.
On to `COCCNC(=O)c1ccc(Nc2nccc(-c3ccc(OCC4CC4)c(C#N)c3)n2)cc1` [compound 666], for which the IC50 in experiment [1] (setting [3]) is less than 5 nM; in experiment [2] (setting [4]), less than 10 nM.
